Here are results for 2 compounds from ChEMBL document CHEMBL5154817, “Structure-activity relationship studies on O-alkylamino-tethered salicylamide derivatives with various amino acid linkers as potent anticancer agents” (Eur J Med Chem, 2022).

The source made the active and inactive calls. The rule behind the calls is not given here. Where only a bound is given, the exact number is not on record here.

In series [1] the test system is MDA-MB-231. Put plainly: Induction of apoptosis in human MDA-MB-231 cells assessed as early apoptotic cells at 10 uM incubated for 48 hrs by Annexin V staining based cell analyzer method (reference value: 2.6%). Type of series: functional.
Series [2] has as its system MDA-MB-231. Put plainly: Induction of apoptosis in human MDA-MB-231 cells assessed as necrotic cells at 1 uM incubated for 48 hrs by Annexin V staining based cell analyzer method (reference value: 0.4%). The class given is functional.
Series [3] relates to MDA-MB-468. Put plainly: Antiproliferative activity against human MDA-MB-468 cells assessed as inhibition of cell growth incubated for 72 hrs by MTT assay. Type of series: functional, cell-based. The note with it: MDA-MB-468, 72 h. On the technique in general: Tetrazolium dyes change colour on reduction, which living cells bring about.
Series [4] relates to MDA-MB-231. The experiment in a line: Induction of apoptosis in human MDA-MB-231 cells assessed as necrotic cells at 5 uM incubated for 48 hrs by Annexin V staining based cell analyzer method (reference value: […]). Type of series: functional.
Series [5] relates to MDA-MB-231. Put plainly: Induction of apoptosis in human MDA-MB-231 cells assessed as downregulation of Bcl-2 level at 1 to 10 uM incubated for 48 hrs by Western blotting analysis. The class given is functional, cell-based. The note with it: dose 1-10 µM.
Series [6] deals with MCF7. Put plainly: Antiproliferative activity against human MCF7 cells assessed as inhibition of cell growth incubated for 72 hrs by MTT assay. The class given is functional, cell-based. The following applies: MCF7, 72 h.
The test system of series [7] is MDA-MB-231. Put plainly: Antitumor activity against human MDA-MB-231 cells xenografted in nude mouse assessed as reduction in tumor volume at 10 mg/kg, ip measured every other day for 14 days. The following applies: MDA-MB-231, 336 h, time 14 day. The class given is functional.
Series [8] has as its target Signal transducer and activator of transcription 3 (Homo sapiens) (UniProt P40763). Put plainly: Inhibition of STAT3 in human MDA-MB-231 cells assessed as suppression of STAT3 phosphorylation incubated for 24 hrs by Western blotting analysis. The following applies: dose 1-10 µM, DDE = dose-dependent effect. Type of series: cell-based. In general terms: In western blotting, separated proteins are transferred to a membrane and probed.

Series [9] has as its system MDA-MB-231. Put plainly: Induction of apoptosis in human MDA-MB-231 cells assessed as late apoptotic cells at 10 uM incubated for 48 hrs by Annexin V staining based cell analyzer method (reference value: 4.45%). The class given is functional.
Series [10] concerns MDA-MB-231. Put plainly: Induction of apoptosis in human MDA-MB-231 cells assessed as viable cells at 5 uM incubated for 48 hrs by Annexin V staining based cell analyzer method (reference value: 92.55%). The note with it: read-out: Activity. Type of series: functional.
Series [11] has as its system MDA-MB-231. The experiment in a line: Inhibition of colony formation in human MDA-MB-231 cells incubated for 2 weeks measured by crystal violet staining method. Type of series: functional, cell-based. The following applies: dose 0.1-3 µM, DDE = dose-dependent effect.
In series [12] the test system is MDA-MB-231. Put plainly: Induction of apoptosis in human MDA-MB-231 cells assessed as late apoptotic cells at 5 uM incubated for 48 hrs by Annexin V staining based cell analyzer method (reference value: 4.45%). Type of series: functional.
The subject of series [13] is MDA-MB-231. Put plainly: Induction of apoptosis in human MDA-MB-231 cells assessed as early apoptotic cells at 5 uM incubated for 48 hrs by Annexin V staining based cell analyzer method (reference value: 2.6%). Type of series: functional.
Series [14] deals with MDA-MB-231. Put plainly: Induction of apoptosis in human MDA-MB-231 cells assessed as increase in cleaved PARP level at 1 to 10 uM incubated for 48 hrs by Western blotting analysis. The class given is functional, cell-based. The following applies: dose 1-10 µM.
For series [15], the system named is T47D. The experiment in a line: Antiproliferative activity against human T47D cells assessed as inhibition of cell growth incubated fro 72 hrs by MTT assay. The class given is functional, cell-based.
Series [16] relates to MCF7. The experiment in a line: Inhibition of colony formation in human MCF7 cells incubated for 2 weeks measured by crystal violet staining method. Type of series: functional, cell-based. The following applies: dose 1-10 µM, DDE = dose-dependent effect.
The subject of series [17] is MDA-MB-231. The experiment in a line: Induction of apoptosis in human MDA-MB-231 cells assessed as viable cells at 1 uM incubated for 48 hrs by Annexin V staining based cell analyzer method (reference value: 92.55%). Type of series: functional. The note with it: read-out: Activity.
Series [18] deals with T47D. Put plainly: Inhibition of colony formation in human T47D cells incubated for 2 weeks measured by crystal violet staining method. Type of series: functional, cell-based. The following applies: dose 0.5-7.5 µM, DDE = dose-dependent effect.
Series [19] has as its system MDA-MB-231. Put plainly: Antiproliferative activity against human MDA-MB-231 cells assessed as inhibition of cell growth incubated for 72 hrs by MTT assay. Type of series: functional, cell-based. The following applies: MDA-MB-231, 72 h.
Series [20] concerns MDA-MB-231. Put plainly: Induction of apoptosis in human MDA-MB-231 cells assessed as viable cells at 10 uM incubated for 48 hrs by Annexin V staining based cell analyzer method (reference value: 92.55%). Type of series: functional. The following applies: read-out: Activity.
In series [21] the test system is MDA-MB-231. Put plainly: Induction of apoptosis in human MDA-MB-231 cells assessed as activation of Bax at 1 to 10 uM incubated for 48 hrs by Western blotting analysis. Type of series: functional, cell-based. The following applies: dose 1-10 µM.
The nature of series [22]: Cytotoxicity against human MCF-10A cells incubated for 72 hrs by MTT assay. Type of series: toxicity, cell-based.
Series [23] deals with MDA-MB-231. The experiment in a line: Induction of apoptosis in human MDA-MB-231 cells assessed as early apoptotic cells at 1 uM incubated for 48 hrs by Annexin V staining based cell analyzer method (reference value: 2.6%). Type of series: functional.
A short description of series [24]: Toxicity in nude mouse xenografted with human MDA-MB-231 cells assessed as loss of body weight at 7.5 to 10 mg/kg, ip measured daily for 14 days. The class given is organism-based. The following applies: in vivo, 336 h, dose 7.5-10 mg/kg, time 14 day. (In xenograft studies the graft and the host belong to different species.)
Series [25] has as its system MDA-MB-468. The experiment in a line: Inhibition of colony formation in human MDA-MB-468 cells incubated for 2 weeks measured by crystal violet staining method. The class given is functional, cell-based. The note with it: dose 0.5-7.5 µM, DDE = dose-dependent effect.
Series [26] deals with MDA-MB-231. The experiment in a line: Induction of apoptosis in human MDA-MB-231 cells assessed as increase in cleaved caspase-3 level at 1 to 10 uM incubated for 48 hrs by Western blotting analysis. The class given is functional, cell-based. The following applies: dose 1-10 µM.
Series [27] concerns MDA-MB-231. Put plainly: Induction of apoptosis in human MDA-MB-231 cells assessed as necrotic cells at 10 uM incubated for 48 hrs by Annexin V staining based cell analyzer method (reference value: 0.4%). Type of series: functional.
Series [28] has as its system MDA-MB-231. Put plainly: Induction of apoptosis in human MDA-MB-231 cells assessed as late apoptotic cells at 1 uM incubated for 48 hrs by Annexin V staining based cell analyzer method (reference value: 4.45%). Type of series: functional.

Signal transducer and activator of transcription 3 (Homo sapiens), sequence (P40763 whole entry): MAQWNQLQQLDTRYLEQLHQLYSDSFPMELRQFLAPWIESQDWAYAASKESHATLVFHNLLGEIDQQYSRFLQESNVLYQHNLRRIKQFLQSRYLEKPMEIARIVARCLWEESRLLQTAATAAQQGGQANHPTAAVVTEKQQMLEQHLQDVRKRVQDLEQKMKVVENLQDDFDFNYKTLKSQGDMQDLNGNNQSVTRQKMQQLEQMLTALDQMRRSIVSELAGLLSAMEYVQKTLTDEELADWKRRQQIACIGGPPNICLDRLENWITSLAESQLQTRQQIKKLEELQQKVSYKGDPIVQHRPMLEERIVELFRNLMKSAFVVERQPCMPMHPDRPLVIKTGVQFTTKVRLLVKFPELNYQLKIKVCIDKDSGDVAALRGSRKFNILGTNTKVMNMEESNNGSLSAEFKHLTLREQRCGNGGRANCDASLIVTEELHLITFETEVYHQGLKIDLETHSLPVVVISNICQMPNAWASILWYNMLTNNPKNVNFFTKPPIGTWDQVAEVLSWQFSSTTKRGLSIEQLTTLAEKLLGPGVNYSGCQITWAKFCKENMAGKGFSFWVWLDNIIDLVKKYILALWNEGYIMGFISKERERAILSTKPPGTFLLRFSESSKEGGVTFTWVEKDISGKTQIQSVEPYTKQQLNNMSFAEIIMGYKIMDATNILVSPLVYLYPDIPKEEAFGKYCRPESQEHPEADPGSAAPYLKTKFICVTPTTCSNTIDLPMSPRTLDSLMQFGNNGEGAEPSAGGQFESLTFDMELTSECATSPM

Consider `CC(C)[C@H](NC(=O)c1cc(Cl)ccc1OCCNC(=O)OC(C)(C)C)C(=O)Nc1ccc([N+](=O)[O-])cc1Cl`, for which the Activity in [1] is 17.85%; in series [2] it was 0.3%; in series [4], 0.55%; in [9] it was 35.7%; in series [12], 10.9%; in [13], 9.75%. The Activity in series [23] is recorded as 2.85%; in series [24], “Non-Toxic”; in series [27] it was 1.6%; in series [28] it was 2.6%. For the same compound, the half-maximal inhibitory concentration (IC50) in [3] was determined as 18300 nM; in series [6], 9050 nM; in series [15], 8920 nM; in [19] it was 3380 nM. Further, the result in [5], in series [14], in series [21] and in series [26] was Active. For the same compound, the inhibition in vivo at 10 mg/kg in [7] amounted to 55%. The inhibition result in series [8], in series [11], in series [16], in series [18] and in series [25] was “Dde” throughout. Moreover, the viability at 5 µM in series [10] worked out at 78.8%. Also, the viability at 1 µM in series [17] is 94.2%. Further, the viability at 10 µM in series [20] was 44.9%. Moreover, in series [22], the IC50 at 72 h is > 60000 nM.
Regarding `CC(C)[C@H](NC(=O)c1cc(Cl)ccc1OCCNC(=O)OC(C)(C)C)C(=O)Nc1ccc2c(c1)S(=O)(=O)C=C2`, the IC50 was 2380 nM in series [3], 1520 nM in [6], 1590 nM in series [15] and 1530 nM in series [19]. In addition, the IC50 at 72 h in series [22] was 2600 nM.

By IC50 is commonly meant the concentration that inhibits the measured activity by half. A word on the inhibition in vivo: it is the relative decrease from the control value, in per cent.
